USRE35053E, “Amines useful in producing pharmaceutically active CNS compounds” (The Upjohn Company, priority 1992, dated 1995)
Structures can show the parent of a compound that is named as a salt.

Key:
[1] = test system: AcylCoA:Cholesterol Acyltransferase (ACAT); assay: AcylCoA:Cholesterol Acyltransferase (ACAT) inhibition Assay; format: cell-based; design: key: compounds which inhibit ACAT activity equal to, or greater than, that of chlorpromazine are considered "active"; settings: active = equal to or greater than chlorpromazine; Fu5AH cells preferred
From the text: ACAT esterifies arterial cholesterol which is a key reaction in the development of atherosclerosis. The procedure of Bell, Can. J. Blochem. 60. […] In the ACAT assay it is preferred to use Fu5AH cells, see Lipids 9, 526 (1974). According to this procedure, compounds which inhibit ACAT activity equal to, or greater than, that of chlorpromazine are considered "active".

[2] = test system: serum and arterial cholesterol; assay: Antiatherosclerosis screen in Susceptible to Experimental Atherosclerosis (SEA) Japanese Quail; format: in vivo; settings: SEA Japanese quail fed atherogenic diet; active = decrease >30 %
Procedure: While not necessary, some minor modifications for extraction of cholesterol from the artery have been made. These are as follows: frozen arteries are homogenized in hexane/isopropanol (3/2) and the volume adjusted with Triton 100 solution (1.5% in hexane/isopropanol) to 7 ml. After standing 12 hr at 20°-25°, the supernatant, obtained by low speed centrifugation is evaporated until dry and then the residue is suspended in 0.5 ml of 5% Triton 100 in isopropanol. This suspension is incubated for 10 min at 45° to dissolve the material. This solution as well as the diluted serum samples are analyzed for cholesterol by standard clinical chemistry analyzer methods. According to the above procedure compounds which decrease serum or arterial cholesterol >30 % are considered to be "active".
Compounds which reduce serum and arterial cholesterol and are useful in treating atherosclerosis and its complications; for example, reduction of serum cholesterol by drugs reduces the incidence of coronary heart disease JAMA 251, 351 (1984) and JAMA 251, 365 (1984).

[3] = test system: interleukin-1; assay: inhibition of interleukin-1 induced T cell proliferation assay; format: cell-based; settings: interleukin-1; 10^-6 M
From the text: The inhibition of interleukin-1 induced T cell proliferation assay, Proc. Nat. […] Since people with arthritis make excess interleukin 1, compounds which inhibit the activity of interleukin 1 are useful in the treatment of arthritis. According to this procedure compounds which inhibit the activity of interleukin 1 greater that 30% at 10^-6 M are considered to be "active".

[4] = test system: induced mucous secretions; assay: inhibition of mucous secretion assay of Johnson; settings: inhibit or block enhancement of induced mucous secretions
From the text: The inhibition of mucous secretion assay of Johnson Int. […] According to this procedure compounds which inhibit or block enhancement of induced mucous secretions when tested are considered to be "active".

[5] = test system: angiogenesis; assay: fertile egg or chick embryo assay of Folkman (inhibition of angiogenesis / tumor growth); format: in vivo; settings: chick embryo; 50 μg/10 μl in the presence of heparin
Procedure: According to this procedure compounds which are considered to be "active" (i.e, antiangiogenic) give an avascular zone of 4 mm or greater in some embryos when tested at 50 μg/10 μl in the presence of 50 μg/10 μ of heparin.

[6] = test system: aspirin induced ulcer; assay: aspirin/cold induced ulcer assay of Rainsford; format: in vivo; settings: active = 50% or more reduction of ulcer index
[7] = test system: mouse head injury; assay: in vivo mouse head injury procedure of Hall, grip test; settings: statistically significant (p<0.05)
[8] = test system: arachidonic acid; assay: Arachidonic Acid Antagonism Assay (AAAA); format: in vivo, mouse (Charles River male CF-1); settings: mice; IV, 15 min before sodium arachidonate; outside 95% confidence interval of control LD50
Procedure, shortened: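 Male CF-1 mice ([…]) received compound IV in 1.0% Tween-80/0.1% HCl in water. LD50 was determined by Spearman-Karber (log dose interval 0.05, N-6); an LD50 raised outside the control 95% confidence interval counted as active.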

Structure (SMILES)	inhibition of ACAT [1]	% Inhibition at 10^-6 M [3] [%]	inhibition of mucous secretion [4]	% Increase in 1 hr Post-Injury Grip Test Scores After 3 mg/kg [7] [%]	also measured
C[C@]12CCC(=O)C=C1CC[C@@H]1C2=CC[C@@]2(C)[C@H]1CC[C@]2(O)C(=O)CN1CCN(c2ccccn2)CC1.Cl [Example 3, 17α-Hydroxy-21-[4-(2-pyridinyl) 1 piperazinyl]pregna-4,9(11)-diene-3,20dione hydrogen chloride salt]	active	–	–	–	reduction of arterial cholesterol [2]: demonstrates reduction of serum and arterial cholesterol; reduction of serum cholesterol [2]: demonstrates reduction of serum and arterial cholesterol
CCN(CC)c1cc(N2CCN(CC(=O)[C@@]3(O)CC[C@H]4[C@@H]5CCC6=CC(=O)CC[C@]6(C)C5=CC[C@@]43C)CC2)nc(N(CC)CC)n1 [Example 16, 17α-Hydroxy-21-[4-[2,6-bis(diethylamino)pyrimidinyl]-1-piperazinyl]pregna4,9(11)-diene-3,20-dione dihydro-chloridehydrate]	–	84	demonstrate such activity	–	% of Embryos with 4 mm or Greater A vascular Zone [5]: 91%; anti-ulcer activity [6]: demonstrates anti-ulcer activity
CCN(CC)c1cc(N2CCN(CC(=O)[C@@]3(O)[C@H](C)C[C@H]4[C@@H]5CCC6=CC(=O)C=C[C@]6(C)C5=CC[C@@]43C)CC2)nc(N(CC)CC)n1.Cl.O [Example 18, 21-[4-[2,6-Bis(diethylamino)-4-pyrimidinyl]-1-piperazinyl]-17α-hydroxy-16α-methylpregna-1,4,9(11)-triene-3,20-dione hydrochloride hydrate]	active	–	demonstrate such activity	–	–
C[C@]12CCC(=O)C=C1CC[C@@H]1C2=CC[C@@]2(C)[C@H]1CC[C@]2(O)C(=O)CN1CCOCC1 [Example 93, 17α-hydroxy-21-(4-morpholino)-pregna-4,9(11)-diene-3,20-dione(E)-2-butanedioate (1:1) salt]	–	62	–	134.5	arachidonic acid antagonism (elevation of LD50 of arachidonic acid) [8]: demonstrate arachidonic acid antagonism
CCNc1cccc(N2CCN(CC(=O)[C@H]3[C@H](C)C[C@H]4[C@@H]5CCC6=CC(=O)C=C[C@]6(C)C5=CC[C@@]43C)CC2)n1 [Example 127, 21-[4-[6-(Ethylamino)-2-pyridinyl]piperazinyl]-16α-methylpregna-1,4,9(11)-triene-3,20-dione hydrochloride]	–	–	–	200.8	–
